Experimental data published in ChEMBL document CHEMBL5352456, “Isocyanides in med chem: A scaffold hopping approach for the identification of novel 4-isocyanophenylamides as potent antibacterial agents against methicillin-resistant Staphylococcusaureus” (Eur J Med Chem, 2023).
≈ marks a conversion by molar mass, not a printed value. Calls of active or inactive are those of the source. No cut-off for these calls is given here.

Assays:
[1] = tested on: Escherichia coli; experiment: Antibacterial activity against Escherichia coli ATCC 25922 assessed as inhibition of bacterial growth measured for 16 to 20 hrs by microdilution assay; type: functional; conditions: time 16-20 hrs
[2] = tested on: Staphylococcus aureus; experiment: Additive antibacterial activity against methicillin-resistant Staphylococcus aureus assessed as fractional inhibitory concentration index in presence of ciprofloxacin by checker board method; type: functional
[3] = tested on: Osteoblast; experiment: Cytotoxicity against human Osteoblast cells assessed as reduction in cell viability measured at 64 to 128 uM measured for 24 hrs by MTT assay; type: toxicity, cell-based; conditions: dose 64-128 µM
[4] = tested on: Staphylococcus aureus; experiment: Antibacterial activity against methicillin-resistant Staphylococcus aureus ATCC 43300 assessed as reduction in microbial growth measured for 16 to 20 hrs by microdilution assay; type: functional; conditions: time 16-20 hrs
[5] = tested on: Staphylococcus epidermidis; experiment: Antibacterial activity against Staphylococcus epidermidis ATCC 35984 assessed as reduction in microbial growth measured for 16 to 20 hrs by microdilution assay; type: functional; conditions: time 16-20 hrs
[6] = tested on: Klebsiella pneumoniae; experiment: Antibacterial activity against Klebsiella pneumoniae ATCC 700603 assessed as inhibition of bacterial growth measured for 16 to 20 hrs by microdilution assay; type: functional; conditions: time 16-20 hrs
[7] = tested on: Staphylococcus aureus; experiment: Anti-biofilm activity in Staphylococcus aureus ATCC 6538 assessed as inhibition of biofilm formation at 16 uM measured for 24 hrs by MTT assay; type: functional; parameters: scale not given: the % may be the effect or the level left
[8] = tested on: Staphylococcus aureus; experiment: Induction of cell membrane permeability in Staphylococcus aureus ATCC 6538; type: functional, organism-based
[9] = tested on: Osteoblast; experiment: Cytotoxicity against human Osteoblast cells assessed as reduction in cell viability measured at 128 uM measured for 24 hrs by MTT assay; type: toxicity, cell-based
[10] = tested on: Staphylococcus aureus; experiment: Antibacterial activity against Staphylococcus aureus ATCC 6538 assessed as reduction in microbial growth measured for 16 to 20 hrs by microdilution assay; type: functional; conditions: time 16-20 hrs
[11] = tested on: Staphylococcus aureus; experiment: Anti-biofilm activity in Staphylococcus aureus ATCC 6538 assessed as inhibition of biofilm formation at 128 uM measured for 24 hrs by MTT assay; type: functional; parameters: scale not given: the % may be the effect or the level left
[12] = tested on: HaCaT; experiment: Cytotoxicity against human HaCaT cells assessed as reduction in cell viability measured at 64 to 128 uM measured for 24 hrs by MTT assay; type: toxicity, cell-based; conditions: dose 64-128 µM
[13] = Metabolic stability in rat liver microsome assessed as parent compound remaining at 50 uM incubated for 1 hr in presence of NADPH regenerating system and GSH by LC-UV analysis; type: ADME; conditions: liver microsomes, read-out: Stability
[14] = Metabolic stability in human plasma assessed as parent compound remaining at 50 uM incubated for 60 mins by LC-UV analysis; type: ADME, cell-free; conditions: read-out: Stability
[15] = Metabolic stability in human liver microsome assessed as intrinsic clearance at 5 uM incubated for 1 hr in presence of NADPH regenerating system and GSH by LC-UV analysis; type: ADME; conditions: liver microsomes, read-out: CLH
[16] = tested on: Staphylococcus aureus; experiment: Anti-biofilm activity in Staphylococcus aureus ATCC 6538 assessed as inhibition of biofilm formation upto 128 uM measured for 24 hrs by MTT assay; type: functional, organism-based
[17] = tested on: Staphylococcus aureus; experiment: Bactericidal activity against methicillin-resistant Staphylococcus aureus ATCC 43300 incubated for 24 hrs by time kill assay; type: functional
[18] = tested on: Staphylococcus epidermidis; experiment: Antibacterial activity against Staphylococcus epidermidis ATCC 49134 assessed as reduction in microbial growth measured for 16 to 20 hrs by microdilution assay; type: functional; conditions: time 16-20 hrs
[19] = tested on: Staphylococcus aureus; experiment: Antibacterial activity against methicillin-resistant Staphylococcus aureus ATCC 33592 assessed as reduction in microbial growth measured for 16 to 20 hrs by microdilution assay; type: functional; conditions: time 16-20 hrs
[20] = tested on: Pseudomonas aeruginosa; experiment: Antibacterial activity against Pseudomonas aeruginosa ATCC 10145 assessed as inhibition of bacterial growth measured for 16 to 20 hrs by microdilution assay; type: functional; conditions: time 16-20 hrs
[21] = tested on: Staphylococcus aureus; experiment: Additive antibacterial activity against methicillin-resistant Staphylococcus aureus assessed as fractional inhibitory concentration index in presence of tetracycline by checker board method; type: functional
[22] = tested on: Staphylococcus aureus; experiment: Bactericidal activity against methicillin-resistant Staphylococcus aureus ATCC 43300 measured for 24 hrs by time kill assay; type: functional, organism-based
[23] = Metabolic stability in human liver microsome assessed as parent compound remaining at 50 uM incubated for 1 hr in presence of NADPH regenerating system and GSH by LC-UV analysis; type: ADME; conditions: liver microsomes, read-out: Stability
[24] = tested on: Staphylococcus epidermidis; experiment: Antibacterial activity against Staphylococcus epidermidis ATCC 12228 assessed as reduction in microbial growth measured for 16 to 20 hrs by microdilution assay; type: functional; conditions: time 16-20 hrs
[25] = tested on: Staphylococcus aureus; experiment: Antibacterial activity against Staphylococcus aureus ATCC 25923 assessed as reduction in microbial growth measured for 16 to 20 hrs by microdilution assay; type: functional; conditions: time 16-20 hrs
[26] = tested on: Staphylococcus aureus; experiment: Antibacterial activity against Staphylococcus aureus ATCC 6538 assessed as reduction in cell surface hydrophobicity; type: functional, organism-based
[27] = tested on: Staphylococcus aureus; experiment: Antibacterial activity against methicillin-resistant Staphylococcus aureus ATCC 43300 assessed as reduction in microbial growth by microdilution assay; type: functional
[28] = tested on: Staphylococcus aureus; experiment: Resistance development in methicillin-resistant Staphylococcus aureus ATCC 43300 assessed as fold increase in MIC after 10 passage; type: functional
[29] = Metabolic stability in human liver microsome assessed as half life at 5 uM incubated for 1 hr in presence of NADPH regenerating system and GSH by LC-UV analysis; type: ADME; conditions: liver microsomes
[30] = tested on: Staphylococcus aureus; experiment: Antibacterial activity against Staphylococcus aureus ATCC 29213 assessed as reduction in microbial growth measured for 16 to 20 hrs by microdilution assay; type: functional; conditions: time 16-20 hrs
[31] = tested on: HaCaT; experiment: Cytotoxicity against human HaCaT cells assessed as reduction in cell viability measured at 128 uM measured for 24 hrs by MTT assay; type: toxicity, cell-based
[32] = tested on: Clavibacter michiganensis; experiment: Antibacterial activity against Clavibacter michiganensis assessed as inhibition of bacterial growth; type: functional
[33] = tested on: Staphylococcus aureus; experiment: Antibacterial activity against Staphylococcus aureus assessed as inhibition of bacterial growth; type: functional
[34] = tested on: Klebsiella pneumoniae; experiment: Antibacterial activity against Klebsiella pneumoniae assessed as inhibition of bacterial growth; type: functional
[35] = tested on: Bacillus anthracis; experiment: Antibacterial activity against Bacillus anthracis assessed as inhibition of bacterial growth; type: functional
[36] = tested on: Acinetobacter baumannii; experiment: Antibacterial activity against Acinetobacter baumannii assessed as inhibition of bacterial growth; type: functional
[37] = tested on: Pseudomonas aeruginosa; experiment: Antibacterial activity against Pseudomonas aeruginosa assessed as inhibition of bacterial growth; type: functional
[38] = tested on: Clostridium tetani; experiment: Antibacterial activity against Clostridium tetani assessed as inhibition of bacterial growth; type: functional

[C-]#[N+]c1ccc(NC(=O)Cc2cccc(Cl)c2)cc1
MIC [1]: ≥ 64 µM
fractional inhibitory concentration index (FICI) [2]: 0.75
Activity [3]: Non-Toxic
MIC [4]: 4 µM
MIC [5]: 0.25 µM
MIC [6]: ≥ 64 µM
Activity [7]: 10%
Activity [8]: Active
Activity [9]: > 70%
MIC [10]: 8 µM
Activity [11]: 94%
Activity [12]: Non-Toxic
remaining at 1 h, 50 µM [13]: 53%
remaining at 1 h, 50 µM [14]: > 99%
microsomal CLint at 5 µM [15]: 24.4 µL/min/mg
Activity [16]: inactive
Activity [17]: >=99.9%
MIC [18]: 0.25 µM
MIC [19]: 4 µM
MIC [20]: ≥ 64 µM
fractional inhibitory concentration index (FICI) [21]: 0.75
Activity [22]: Active
remaining at 1 h, 50 µM [23]: 82%
MIC [24]: 0.5 µM
MIC [25]: 2 µM
Activity [26]: inactive
MIC [27]: 4 µM
fold change (FC) [28]: >4
half-life at 5 µM [29]: 26.2 min
MIC [30]: 8 µM

[C-]#[N+]c1ccc(NC(=O)COc2ccccc2)cc1
MIC [1]: ≥ 64 µM
Activity [3]: Non-Toxic
MIC [4]: 2 µM
MIC [5]: 0.25 µM
MIC [6]: ≥ 64 µM
Activity [7]: 10%
Activity [8]: Active
Activity [9]: > 70%
MIC [10]: 8 µM
Activity [11]: 94%
Activity [12]: Non-Toxic
Activity [16]: inactive
Activity [17]: >=99.9%
MIC [18]: 0.25 µM
MIC [19]: 4 µM
MIC [20]: ≥ 64 µM
fractional inhibitory concentration index (FICI) [21]: 0.75
Activity [22]: Active
MIC [24]: 0.5 µM
MIC [25]: 2 µM
Activity [26]: inactive
MIC [27]: 4 µM
fold change (FC) [28]: >4
Activity [31]: < 70%
MIC [30]: 8 µM

[C-]#[N+]C(=C\c1ccc(O)cc1)/C(=C/c1ccc2c(c1)CCC(C)(C)O2)[N+]#[C-]
MIC [32]: 0.87 µM (≈ 0.31 µg/mL)

[C-]#[N+]/C(Cl)=C/C1(OC(C)=O)C(=O)Nc2ccccc21 (configuration not stated)
MIC [33]: 0.18 µM (≈ 0.0498 µg/mL)
MIC [34]: 0.7 µM (≈ 0.194 µg/mL)
MIC [35]: 0.7 µM (≈ 0.194 µg/mL)

[C-]#[N+]C(=C\c1ccc(O)cc1)/C(=C/c1ccc(O)cc1)[N+]#[C-] [XANTOCILLIN]
MIC [36]: 0.25 µM (≈ 0.0721 µg/mL)
MIC [37]: 0.69 µM (≈ 0.199 µg/mL)
MIC [38]: 0.69 µM (≈ 0.199 µg/mL)
